Assay results: publication PMC10408569, “Recruitment of hexahydroquinoline as anticancer scaffold targeting inhibition of wild and mutants EGFR (EGFR^WT, EGFR^T790M, and EGFR^L858R)” (Journal of Enzyme Inhibition and Medicinal Chemistry, 2023)

Assays:
HOP-92 cells [1] = assay: Cell cycle analysis by flow cytometry; format: cell-based, human; conditions: HOP-92, 10 µM, 24 h; for percentage of cells at the pre-G1 phase: control 3.05%; for cells at G2/M: control 12.98%; for proportion of cells in the S phase: control 31.46%; for percentage of cells in the G0/G1: control 55.38%
Experimental: Antitumor drugs can cause cell cycle arrest and death via activating signalling pathways[85]^,[86]. Cell growth in various cell cycle phases is measured by flow cytometry[87]^,[88]. […] We have treated HOP-92 cells with 10 µM of compounds 10c and 10d to incubate for 24 h. […] According to these observations, Compounds 10c and 10d induce apoptosis in NSC lung cancer, HOP-92, cells via cell cycle arrest at the pre-G1 phase as well as the G2/M phase (Figure 8(D)). […]
[…] Cellular mechanistic analysis
The examination of the cell cycle was done using flow cytometry. The test compound was applied to HOP-92 cells before they were cultured for 24 hours at 37 °C, 5% CO 2. After gathering and centrifuging the cell pellets, they were fixed in 70% (v/v) ethanol unde r the ice for 15 minutes. Pellets were once more collected and then incubated in a solution of 50 µg/mL propidium iodide (PI) and […]
0.1 mg/mL RNAse. […]

HOP-92 cells [2] = assay: Annexin V-FITC apoptosis assay; format: cell-based, human; conditions: for total apoptosis, fold more than control / total apoptosis percentage: HOP-92; for early apoptosis ratio / late apoptosis ratio: HOP-92, 10 µM, 24 h; for early apoptosis ratio: control (DMSO) 0.70%; for late apoptosis ratio: control (DMSO) 1.80%; for total apoptosis percentage: control 2.5%
Description: The most important mechanism chemotherapeutics eradicate cancer cells is apoptosis induction[78]^,[79]. Cellular alterations brought on by apoptosis include the translocation of phosphatidylserine (PS) from the inside to the outside via the plasma membrane[80]^,[81]. PS can be detected outside the plasma membrane using a sensitive probe called Annexin V, which can bind to PS[82]^,[83]. […] HOP-92 cells were also overexpressed in NSC lung cancer. Therefore, they were selected to be subjected to apoptosis assay. HOP-92 cells were stained with AV/PI for 24 h at a mixed molar concentration of 10 µM with compounds 10c and 10d (Figure 7(A,B)). […] These findings supported that the cytotoxic effects of compounds 10c and 10d were due to the apoptotic mechanism rather than the necrotic pathway. The results of compounds 10c and 10d compared to the control sample are presented as a bar chart (Figure 7(D)).
[…] Annexin V-FITC apoptosis assay
A protein known as annexin V-fluorescein isothiocyanate (Annexin V-FITC) binds phosphatidyl serine PS, which can be seen by staining. They used Annexin V-FITC and a propidium iodide counterstain (PI). Apoptosis was first induced by incubating cells in 96-microwell plates at a density of […] with the addition of the test substance (100 µL) for 24 hours. Then, 1-5 × 10^5 cells were centrifuged and resuspended in 500 µL of binding buffer. PI (5 µL) and Annexin V - FITC (5 µL) were added, and the mixture was incubated at room temperature for 5 minutes in the dark. An nexin -V -FITC binding was analyzed using A FACS C alibur flow cytometer (BD Biosciences, San Jose, CA). […]

NCI-H23 = assay: NCI-60 anticancer screening (SRB); format: cell-based; conditions: Homo sapiens, five doses 0.01-100 µM, 48 h

## CCOC(=O)C1=C(N)N(c2ccccc2)C2=C(C(=O)CC(C)(C)C2)C1c1ccc(Cl)cc1Cl (racemic) [10c, (±)-Ethyl 2-amino-4–(2,4-dichlorophenyl)-7,7-dimethyl-5-oxo-1-phenyl-1,4,5,6,7,8-hexahydroquinoline-3-carboxylate]
HOP-92 cells [1]
  percentage of cells at the pre-G1 phase: 25.82%
  cells at G2/M: 34.07%
  proportion of cells in the S phase: 20.18%
  percentage of cells in the G0/G1: 45.75%
HOP-92 cells [2]
  total apoptosis, fold more than control: approximately 10 fold
  early apoptosis ratio: 8.74%
  late apoptosis ratio: 15.44%
  total apoptosis percentage: 24.18%
NCI-H23
  GI50: 2510 nM

## CCOC(=O)C1=C(N)N(c2ccc(Cl)cc2)C2=C(C(=O)CC(C)(C)C2)C1c1ccc(Cl)cc1Cl (racemic) [10d, (±)-Ethyl 2-amino-1–(4-chorophenyl)-4–(2,4-dichlorophenyl)-7,7-dimethyl-5-oxo-1-phenyl-1,4,5,6,7,8-hexahydroquinoline-3-carboxylate]
HOP-92 cells [1]
  percentage of cells at the pre-G1 phase: 21.55%
  cells at G2/M: 49.21%
  proportion of cells in the S phase: 25.42%
  percentage of cells in the G0/G1: 25.37%
HOP-92 cells [2]
  total apoptosis, fold more than control: ~8 fold
  early apoptosis ratio: 7.68%
  late apoptosis ratio: 12.15%
  total apoptosis percentage: 19.83%
